The source of these data is ChEMBL document CHEMBL1201862, “PubChem BioAssay data set” (2004).

“And” between values parts separate entries of the source, which are not always exact repeats. Equal values may be shown once.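 Each compound was tested at five concentrations against cells in 96-well plates for 48 hours. At the GI50, growth is halved.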 The source made the active and inactive calls. No stated cut-off is given here; in the data, active = GI50 up to about 1.1 µM and inactive = higher. Where only a bound is given, the exact number is not on record here.

Among the test systems are ACHN; IGROV-1; PC-3; NCI/ADR-RES; MDA-MB-435; HT-29; RPMI-8226; MDA-MB-231; SK-MEL-2; NCI-H460; MOLT-4; 786-0; T47D; SK-MEL-28; HL-60; A498; HOP-62; SNB-75; NCI-H522.
Assay in all cases: inhibition of tumour cell growth, NCI panel, 48 h

Consider `CC(=O)OCC(OC(C)=O)C(OC(C)=O)C(/C=N\Nc1nc2ccccc2c(=O)[nH]1)OC(C)=O` (centres undefined), for which the GI50 was > 100 µM (inactive) in the test with ACHN; 26.1 µM (inactive) and 43.5 µM (inactive) in the test with IGROV-1; > 100 µM (inactive) in the test on PC-3; 24.9 µM (inactive) and 34.5 µM (inactive) in the test on NCI/ADR-RES; > 100 µM (inactive) with MDA-MB-435; 26.2 µM (inactive) and 41.6 µM (inactive) with HT-29. Further, the GI50 was 91.8 µM (inactive) with RPMI-8226; > 100 µM (inactive) in the test with MDA-MB-231; > 100 µM (inactive) in the test with SK-MEL-2; > 100 µM (inactive) in the test on NCI-H460; 86.9 µM (inactive) in the test on MOLT-4; > 100 µM (inactive) with 786-0. The GI50 with T47D was > 100 µM (inactive); in the test on SK-MEL-28, > 100 µM (inactive); with HL-60, 67.9 µM (inactive) and 85.9 µM (inactive); with A498, > 100 µM (inactive); in the test with HOP-62, > 100 µM (inactive); with SNB-75 it was > 100 µM (inactive).
For `[N-]=[N+]=Nc1nc2ccccc2c(N=[N+]=[N-])c1Cl`, the GI50 in the test on ACHN, with IGROV-1, in the test with PC-3, in the test with NCI/ADR-RES, with MDA-MB-435 and in the test with HT-29 was > 100 µM (inactive) in each case. The GI50 with RPMI-8226 was > 100 µM (inactive); in the test on MDA-MB-231, > 100 µM (inactive); in the test with SK-MEL-2, > 100 µM (inactive); in the test on NCI-H460 it was > 100 µM (inactive); in the test with MOLT-4 it was > 100 µM (inactive); with 786-0, 56.2 µM (inactive). The GI50 in the test on T47D was > 100 µM (inactive); in the test with SK-MEL-28, > 100 µM (inactive); with HL-60, > 100 µM (inactive); with A498 it was 6.81 µM (inactive); with HOP-62 it was 79.1 µM (inactive); in the test with SNB-75 it was 24.9 µM (inactive).
With `Fc1ccccc1C1SCC2=Nc3ccccc3CN21` (centres undefined), the GI50 in the test with ACHN, with PC-3, with NCI/ADR-RES, with MDA-MB-435, in the test on HT-29 and in the test on RPMI-8226 was > 100 µM (inactive) in each case. The GI50 in the test on MDA-MB-231 was > 100 µM (inactive); in the test on SK-MEL-2, 43.6 µM (inactive); with NCI-H460, > 100 µM (inactive); in the test with MOLT-4, > 100 µM (inactive); in the test with 786-0, 95.3 µM (inactive); in the test on T47D, > 100 µM (inactive). The GI50 in the test on SK-MEL-28 was > 100 µM (inactive); with HL-60, > 100 µM (inactive); in the test on A498, > 100 µM (inactive); with HOP-62, 67.1 µM (inactive); in the test on SNB-75, > 100 µM (inactive).
As for `CCOC(=O)NN(C(=O)OCC)c1c(C)cc(C)cc1C`, the GI50 in the test with IGROV-1 is 64.4 µM (inactive); in the test with PC-3, > 100 µM (inactive); in the test on NCI/ADR-RES, > 100 µM (inactive); in the test on MDA-MB-435 it was > 100 µM (inactive); in the test with HT-29, > 100 µM (inactive); in the test on RPMI-8226 it was > 100 µM (inactive). Further, the GI50 in the test with MDA-MB-231, in the test with SK-MEL-2, in the test with NCI-H522, in the test on NCI-H460, with MOLT-4 and in the test on 786-0 was > 100 µM (inactive) each time. Moreover, the GI50 in the test with T47D, in the test on SK-MEL-28, in the test on HL-60, with A498 and in the test on SNB-75 was > 100 µM (inactive) in each case.
In the case of `CCCCCCCCCCCCC(=O)NCC(=O)NC(Cc1ccccc1)C(=O)Oc1ccc([N+](=O)[O-])cc1` (centres undefined), the GI50 was > 100 µM (inactive) with ACHN; 87.9 µM (inactive) in the test with IGROV-1; > 100 µM (inactive) with PC-3; 57.1 µM (inactive) in the test on NCI/ADR-RES; 65.8 µM (inactive) in the test with MDA-MB-435; 82.2 µM (inactive) with HT-29. Also, the GI50 in the test on MDA-MB-231 was 48.4 µM (inactive); with SK-MEL-2 it was > 100 µM (inactive); with NCI-H522 it was 29.4 µM (inactive); in the test with NCI-H460, > 100 µM (inactive); in the test on 786-0, 84.3 µM (inactive); with T47D it was 92.9 µM (inactive). The GI50 in the test on HL-60 was 64.4 µM (inactive); in the test on A498, > 100 µM (inactive); in the test with HOP-62, > 100 µM (inactive); in the test with SNB-75, 18.5 µM (inactive).
On to `C/C(=C\CNc1nc(Cl)nc2[nH]cnc12)CO`, for which the GI50 with ACHN, in the test on IGROV-1, with PC-3, with NCI/ADR-RES, in the test on MDA-MB-435 and with HT-29 was > 100 µM (inactive) each time. Further, the GI50 with RPMI-8226, with MDA-MB-231, in the test on NCI-H522, with NCI-H460, with MOLT-4 and with 786-0 was > 100 µM (inactive) throughout. Besides, the GI50 in the test on T47D is > 100 µM (inactive); with SK-MEL-28 it was > 100 µM (inactive); with HL-60, > 100 µM (inactive); with A498 it was > 100 µM (inactive); in the test with HOP-62, > 100 µM (inactive); in the test on SNB-75, 96.4 µM (inactive).
For the molecule `CC(=O)O[C@H]1C(=O)[C@@]2(C)[C@H]([C@H](OC(=O)c3ccccc3)[C@]3(O)C[C@H](OC(=O)[C@H](O)[C@@H](NC(=O)c4cccc(N=[N+]=[N-])c4)c4ccccc4)C(C)=C1C3(C)C)[C@]1(OC(C)=O)CO[C@@H]1C[C@@H]2O`, the GI50 with ACHN is 0.327 µM (active); with IGROV-1 it was 0.00679 µM (active); with PC-3 it was 0.0047 µM (active); in the test with NCI/ADR-RES, 8.32 µM (inactive); in the test with MDA-MB-435, < 0.0025 µM (active); in the test with HT-29, < 0.0025 µM (active). In addition, the GI50 in the test on RPMI-8226 was < 0.0025 µM (active); with MDA-MB-231, 0.0149 µM (active); in the test with NCI-H522 it was 0.00307 µM (active); with NCI-H460 it was 0.00859 µM (active); in the test on MOLT-4 it was 0.00453 µM (active); in the test on 786-0 it was 0.0179 µM (active). Further, the GI50 is 0.0338 µM (active) in the test with T47D; 0.425 µM (active) in the test with SK-MEL-28; < 0.0025 µM (active) with HL-60; 0.0408 µM (active) in the test with A498; 0.00813 µM (active) with HOP-62; 0.0173 µM (active) in the test with SNB-75.
On to `CC(C)/C(Cl)=N\OC(NC(=O)P(=O)(c1ccccc1)c1ccccc1)(C(F)(F)F)C(F)(F)F`, for which the GI50 in the test on ACHN was 3.62 µM (inactive); with IGROV-1, 10.8 µM (inactive); in the test on PC-3, 12.6 µM (inactive); in the test on NCI/ADR-RES it was 12.8 µM (inactive); in the test with MDA-MB-435 it was 16.3 µM (inactive); in the test on HT-29, 16.1 µM (inactive). Also, the GI50 with RPMI-8226 was 10.3 µM (inactive); with MDA-MB-231, 16 µM (inactive); with NCI-H460 it was 15.2 µM (inactive); in the test on MOLT-4, 8.05 µM (inactive); in the test on 786-0, 10.3 µM (inactive); with T47D it was 10.9 µM (inactive). In addition, the GI50 in the test with SK-MEL-28 was 14.9 µM (inactive); in the test on HL-60, 11.5 µM (inactive); in the test with A498 it was 14.9 µM (inactive); in the test with HOP-62, 17.3 µM (inactive); with SNB-75, < 0.01 µM (active).
